Read-outs that look alike come from different tables or passages of the source.
How the values were obtained:
Lmna^H222P/H222P mice [1] = test: Echocardiography at 20 weeks of age, second-generation MEK1/2 inhibitors from 16 to 20 weeks; format: in vivo, mouse; settings: 1 mg/kg/day, 5 days a week from 16 to 20 weeks
Experimental: The compounds were administered at a dose of 1 mg/kg/day, 5 days a week to Lmna^H222P/H222P mice, as previously described. Treatment was initiated at 16 weeks of age and continued until the mice were 20 weeks of age. At 20 weeks of age, the mice were analyzed by echocardiography and then sacrificed for biochemical studies. Untreated male Lmna^+/+ and Lmna^H222P/H222P mice were similarly analyzed for comparisons.

ERK1/2 = test: Immunoblot of phosphorylated ERK1/2 versus total ERK1/2 in hearts of treated mice; format: in vivo, mouse; settings: 1 mg/kg/day from 16 to 20 weeks of age
Experimental: Hearts were excised from mice at 16-weeks of age and were homogenized in RIPA extraction buffer (Cell Signalling) containing protease inhibitors (25 […]). Protein samples were subjected to SDS-PAGE, transferred to nitrocellulose membranes and blotted with primary antibodies against ERK1/2 (Santa-Cruz), phosphorylated ERK1/2 (Cell Signaling), JNK (Santa-Cruz), natriuretic peptide precursor A (Santa-Cruz), phosphorylated JNK (Cell Signaling), and Gapdh (Ambion). Secondary antibodies were HRP-conjugated (Amersham). Recognized proteins were visualized by enhanced chemiluminescence (ECL, Amersham). The signal generated using an antibody against Gapdh was used as internal controls to normalize the amounts of protein between immunoblots.
We assessed the efficacy of the chemical entities in inhibiting their targets in the heart by immunoblot using anti-total ERK1/2 (Santa Cruz) and anti-pERK1/2 (Cell Signaling) antibodies.
Proteins were loaded on 10% SDS gels and electrotransferred on a […] pore size nitrocellulose membrane (Invitrogen). We used antibodies directed against phosphorylated ERK1/2 (Cell Signaling, 1:1,000), total ERK1/2 (Santa Cruz, 1:2,000), phosphorylated JNK (Cell Signaling, 1:1,000) and total JNK (Santa Cruz, 1:200). The secondary antibodies were coupled to horseradish-peroxydase (Amersham). Recognized proteins were visualized by enhanced chemiluminescence (SuperSignal® West Pico chemiluminescent substrate, Thermo Scientific).

MEK1/2 = settings: Table 10, description of MEK1/2 inhibitors; cited from earlier work
[2] = tested on: hearts from Lmna^H222P/H222P mice; test: Quantification of myocardial fibrotic area (Gomori's trichrome); format: in vivo, mouse; settings: 20 weeks of age; 1 mg/kg/day from 16 to 20 weeks; DMSO 20.93%±2.45%
From the text: Later-stage cardiomyopathy caused by LMNA mutations is characterized by myocardial fibrosis. […] We quantified the myocardial fibrotic area of each animal by determining the ratio of fibrotic tissue (blue stained with Gomori's trichrome) to the total tissue area in each micrograph (FIG. 8B). Hearts from DMSO-treated Lmna^H222P/H222P mice had 20.93%±2.45% fibrotic tissue per total surface examined (FIG. 8B).
Mice were sacrificed at 20 weeks of age, and freshly removed hearts were fixed in 4% formaldehyde for 48 hours, embedded in paraffin, sectioned at 5 μm and stained with hematoxylin, eosin and Gomori's trichrome and Syrius Red. Representative stained sections were photographed using a Microphot SA (Nikon) light microscope attached to a Spot RT Slide camera (Diagnostic Instruments) with a 10× objective. Images were processed using Adobe Photoshop CS (Adobe Systems).
Later-stage cardiomyopathy caused by LMNA mutations is characterized by myocardial fibrosis (21,22). […] We quantified the myocardial fibrotic area of each animal by determining the ratio of fibrotic tissue (blue stained with Gomori's trichrome) to the total tissue area in each micrograph (FIG. 34C). Hearts from DMSO-treated Lmna^H222P/H222P mice had 15.01±0.9% fibrotic tissue per total surface examined (FIG. 34D).

[3] = tested on: hearts from Lmna^H222P/H222P mice; test: Quantitative real-time RT-PCR of mRNAs in hearts of treated mice; format: in vivo, mouse; settings: for expression of Colla1 and Colla2: 20 weeks of age, 1 mg/kg/day from 16 to 20 weeks
From the text: Total RNA was extracted using the Rneasy isolation kit (Qiagen) as previously described (96). cDNA was synthesized as previously described (96) using Omniscript Reverse Transcriptase (Qiagen) on total cellular RNA. For each replicate in each experiment, RNA from tissue samples of different animals was used. Primers were designed that correspond to mouse RNA sequences using Primer3 (http://frodo.wi.mit.edu/cgi-biniprimer3/primer3_www.cgi). The real-time RT-PCR reaction contained iQ SYBR green super mix (Bio-Rad), 200 nM of each primer and 0.2 μl of template in a 25 μl reaction volume. Amplification was carried out using appropriate primers and the MyiQ Single-Color Real-Time PCR Detection System (Bio-Rad) with an initial denaturation at 95° C. for 2 min followed by 50 cycles at 95° C. for 30 s and 62° C. for 30 s. Relative levels of mRNA expression were calculated using the CT method (67). Individual expression values were normalized by comparison with Gapdh mRNA.
Real-time reverse transcription-PCR (RT-PCR) was used to quantify tissue RNA levels. Total RNA was extracted from cardiac ventricles of mice using the Rneasy isolation kit (Qiagen) as previously described. cDNA was synthesized using Superscript first strand synthesis system according to the manufacturer's instructions (Invitrogen) on total RNA. For each replicate in each experiment, RNA from tissue samples of different animals was used. Primers were designed correspond to mouse RNA sequences using Primer3 (http://frodo.wi.mit.edu/cgi-bin/primer3/primer3_www.cgi) for Nppa (forward 5′-[…]-3′ [SEQ ID NO: 4], reverse 5′-[…]-3′ [SEQ ID NO: 5]), Nppb (forward 5′-[…]-3′ [SEQ ID NO: 6], reverse 5′-[…]-3′ [SEQ ID NO: 7]), Mlc-2a (forward 5′-[…]-3′ [SEQ ID NO: 8], reverse 5′-[…]-3′ [SEQ ID NO: 9]), Colla1 (forward 5′-[…]-3′ [SEQ ID NO: 10], reverse 5′-[…]-3′ [SEQ ID NO: 11]), Colla2 (forward 5′-[…]-3′ [SEQ ID NO: 12], reverse 5′-[…]-3′ [SEQ ID NO: 13]) and Fn1 (forward 5′-[…]-3′ [SEQ ID NO: 14], reverse 5′-[…]-3′ [SEQ ID NO: 15]). The real-time RT-PCR reaction contained iQ SYBR green super mix (Bio-Rad), 200 nM of each primer, and 0.2 μl of template in a 25 μl reaction volume. Amplification was carried out using the MyiQ Single-Color Real-Time PCR Detection System (Bio-Rad) with an initial denaturation at 95° C. for […] followed by 50 cycles at 95° C. for 30 s and 62° C. for 30 s. Relative levels of mRNA expression were calculated using the ΔΔCT method (2). Individual expression values were normalized by comparison with Gapdh mRNA (forward 5′-[…]-3′ [SEQ ID NO: 16], reverse 5′-[…]-3′ [SEQ ID NO: 17]).

[4] = tested on: atrial natriuretic factor; test: Serum atrial natriuretic factor before and after treatment; format: in vivo, mouse; settings: before (16 weeks) and after (20 weeks) treatment; compared to DMSO-treated mice
From the text: We measured the expression of atrial-natriuretic factor in the serum Lmna^H222P/H222P mice before (16 weeks) and after (20 weeks) the treatment with the MEK1/2 inhibitors (FIG. 3).

Lmna^H222P/H222P mice [5] = format: in vivo, mouse; settings: Lmna^H222P/H222P mice at 16 weeks of age; i.p. 5 days a week from 8 to 16 weeks (PD98059, SP600125 3 mg/kg/day); means ± standard deviations
Experimental: PD98059 (Calbiochem) and SP600125 (Calbiochem) were dissolved in Dimethyl Sulfoxide (DMSO, Sigma) at a concentration of 0.5 mg/ml and were delivered to a dose of 3 mg/kg/day for 5 days a week. […] The placebo control consisted of DMSO alone. Placebo and inhibitors were administered by intraperitoneal injection using a 27G^5/8 syringe. Treatment was started when mice were 8 weeks of age and continued until 16 weeks of age.
Lmna H222P knock-in mice were generated and genotyped as described (14). […] Lmna^H222P/H222P mice were separated by sex and were given either vehicle alone (DMSO), the MEK inhibitor PD98059 alone, the JNK inhibitor SP600125 alone, both PD98059 and SP600125 together, the MEK inhibitor U0126 alone, or the MEK inhibitor MEK1/2 alone. All the mice were fed on a chow diet and housed in a barrier facility. The Institutional Animal Care and Use Committee at Columbia University Medical Center approved the use of animals in the study protocol.
Cardiac function was assessed by echocardiography with a Visualsonics Vevo 770 ultrasound with a 30-MHz transducer applied to the chest wall. Cardiac ventricular dimensions and ejection fraction were measured in 2D-mode and M-mode three times for the number of animals indicated. A “blinded” echocardiographer, unaware of the genotype or treatment, performed the examinations.
We administered PD98059, at a dose of 3 mg/kg/day or 6 mg/kg/day, or placebo (dimethylsulfoxide; DMSO) by intraperitoneal injection 5 days a week to male homozygous Lmna mutant mice (Lmna^H222P/H222P). […] PD98059 mediates its inhibitory properties by binding to MEK, therefore preventing phosphorylation of ERK1/2.
Treatment was initiated at 8 weeks of age and continued until the mice were 16 weeks of age. At 16 weeks of age, the mice were analyzed by echocardiography and then sacrificed for histological and biochemical studies. Untreated male Lmna^+/+ and Lmna^H222P/H222P mice were similarly analyzed for comparisons.

[6] = 1 mg/kg/day from 16 to 20 weeks of age

Row | Compound | FS (Lmna^H222P/H222P mice [1]) | LVEDD compared to DMSO-treated mice (Lmna^H222P/H222P mice [1]) | LVESD compared to DMSO-treated mice (Lmna^H222P/H222P mice [1]) | phosphorylation of ERK1 and ERK2 in hearts (ERK1/2) | IC50 (MEK1/2) [nM] | area of fibrotic tissue per total surface examined [2] | decrease of Mlc-1a and Mlc-2a mRNAs compared to hearts of DMSO-treated mice [3, 6] | expression of Colla1 and Colla2 [3] | expression of atrial natriuretic factor in serum [4] | FS improvement (Lmna^H222P/H222P mice [1]) | EF (Lmna^H222P/H222P mice [5]) [%] | FS (Lmna^H222P/H222P mice [5]) [%] | IVSD (Lmna^H222P/H222P mice [5]) [mm] | LVEDD (Lmna^H222P/H222P mice [5]) [mm] | LVESD (Lmna^H222P/H222P mice [5]) [mm] | LVPW (Lmna^H222P/H222P mice [5]) [mm] | cardiac expression of brain natriuretic factor (Nppb) [3, 6]
1 | Cn1cnc2c(F)c(Nc3ccc(Br)cc3Cl)c(C(=O)NOCCO)cc21 [AZD6244] | 25.97%±5.05% | significantly smaller | significantly smaller | inhibited partially | 10 | 11.90%±1.97% | approximately 2 fold | significantly lowered | significantly decreased |  |  |  |  |  |  |  | 
2 | O=C(NOCC1CC1)c1ccc(F)c(F)c1Nc1ccc(I)cc1Cl [CI-1040] |  | significantly smaller |  | inhibited partially | 1 | 13.10%±0.96% |  | significantly lowered | significantly decreased | not improved |  |  |  |  |  |  | 
3 | N#CC(=C(N)Sc1ccc(N)cc1)c1ccccc1C(F)(F)F [MEK1/2, Z-& E-a-(amino-((4-aminophenyl)thio)methylene)-2-(trifluoromethyl)benzeneacetonitrile] |  |  |  |  |  |  |  |  |  |  | 64.43 ± 0.77 | 34.50 ± 0.36 | 0.60 ± 0.00 | 3.77 ± 0.32 | 2.62 ± 0.28 | 0.69 ± 0.08 | 
4 | O=C(NOCC(O)CO)c1ccc(F)c(F)c1Nc1ccc(I)cc1F (centres unmarked) [PD0325901] | 23.23%±6.33% |  |  | inhibited partially |  | 15.06%±0.28% | approximately 2 fold | significantly lowered | trend toward diminished expression |  |  |  |  |  |  |  | decreased
5 | N#CC(=C(N)Sc1ccccc1N)C(C#N)=C(N)Sc1ccccc1N [U0126, 1,4-diamino-2,3-dicyano-1,4-bis(2-aminophenylthio)butadiene] |  |  |  |  |  |  |  |  |  |  | 62.83 ± 4.09 | 33.79 ± 3.10 | 0.64 ± 0.03 | 3.54 ± 0.16 | 2.47 ± 0.09 | 0.69 ± 0.11 | 
